Data as given in US11827665B2, “Process for the manufacture of (2S,3S,4S,5R,6S)-3,4,5-trihydroxy-6-(((4AR,10AR)-7-hydroxy-1-propyl-1,2,3,4,4A,5,10,10A-octahydrobenzo[g]quinolin-6-yl)oxy)tetrahydro-2H-pyran-2-carboxylic acid” (H. Lundbeck A/S, priority 2019, dated 2023).

Assays:
[1] = man, oral dosing; cited from earlier work
Parkinson's disease = details: PD patients, intravenous (IV); cited from earlier work
rat locomotor activity = assay: Rat locomotor activity (hyperactivity) assay, open field, with PK/PD; assay type: in vivo, male CD rats; details: for Relationship between plasma concentration and hyperactivity: (Id) 100 μg/kg p.o. (plasma compound (I)), apomorphine 3 mg/kg s.c. (plasma apomorphine)
Description: Animals were dosed at t=60 minutes after a 60-minutes habituation period in test chambers, and activity was monitored for 350 minutes thereafter.
In total, 206 male CD rats (Charles River, Germany) weighing 200-250 grams (165-190 grams upon arrival) were used in the study. Animals were housed at a standard temperature (22±1° C.) and in a light-controlled environment (lights on from 7 am to […]) with ad libitum access to food and water. The experiment described below was performed in accordance with the standard operating procedures of Charles River Discovery Research Services Finland Ltd. and in accordance with the national Animal Experiment Board of Finland (Eläinkoelautakunta, ELLA) authority on animal testing.
The test device is a square Plexiglass-arena (measuring 40×40×40 cm), in which the movement paths of the rats are recorded by an activity monitor (Med. Associates Inc.). Before the test period is initiated, rats are habituated to their test cage for 60 minutes. Upon completion of habituation, animals were treated with either compound or vehicle and placed back into the open field apparatus. The main test parameter measured is ambulatory distance (recorded in 5-minute segments). Overall time of measurement after receiving initial treatment was 360 minutes. Total follow up period in the study was 420 min, including 60 min of habituation.

rat hepatocytes [2] = assay: Incubation with rat hepatocytes; assay type: in vitro ADME
Description: (§1) The cell concentration at incubation was 1×10^6 viable cells/mL. The incubations were performed in glass tubes at 37° C. with a total incubation volume of 3.5 mL and with duplicate incubations for each test item. The 3.5 mL of hepatocyte suspension was equilibrated for 10 minutes in a water bath set to 37° C. where after the incubations were initiated by adding 3.5 μL of a stock solution of the test item in DMSO (Dimethyl sulfoxide) and gently inverting the tubes. The final solvent concentration in the incubations was 0.1% DMSO. Samples of 600 μL were withdrawn from the incubations at the pre-determined time points of 0.25, 5, 15, 30 and 60 minutes after ensuring homogeneity of hepatocyte suspensions. The withdrawn volume was added to 1 mL Nunc cryotubes on wet ice containing 60 μL of ice-cold ascorbic acid (100 mg/mL) and 30 μL of ice cold 100 mM saccharic acid 1.4-lactone in 0.5 M citric acid. The tubes were mixed and 35 μL of a solution of ice cold 20% formic acid was added. The tubes were mixed thoroughly and stored at −80° C. awaiting analysis.

human hepatocytes [3] = assay: Incubation with human hepatocytes; assay type: in vitro ADME
Description: as §1

[4] = test system: Parkinson's Disease animal models; details: WO 2010/097092; cited from earlier work
human 5-HT2B receptor [5] = target: T1, human 5-HT2B receptor (Homo sapiens, UniProt P41595); assay: 5-HT2B agonist activity assay (IP1 production, HTRF); assay type: cell-based; details: for 5-HT2B receptor agonism (in words): example 6 and Table 2
T1 construct: host or cells: CHO
Description: Evaluation of the agonist activity of compounds (I), (Ia), (Ib), (Ic) and (Id) at the human 5-HT2B receptor was performed by Eurofins/Cerep (France) measuring the compound effects on inositol monophosphate (IP1) production using the HTRF detection method. Briefly, the human 5-HT2B receptor was expressed in transfected CHO cells. The cells were suspended in a buffer containing 10 mM Hepes/NaOH (pH 7.4), 4.2 mM KCl, 146 mM NaCl, 1 mM CaCl2, 0.5 mM MgCl2, 5.5 mM glucose and 50 mM LiCl, then distributed in microplates at a density of 4100 cells/well and incubated for 30 minutes at 37° C. in the presence of buffer (basal control), test compound or reference agonist. For stimulated control measurement, separate assay wells contained 1 μM 5-HT. Following incubation, the cells were lysed and the fluorescence acceptor (fluorophen D2-labeled IP1) and fluorescence donor (anti-IP1 antibody labeled with europium cryptate) were added. After 60 minutes at room temperature, the fluorescence transfer was measured at lambda (Ex) 337 nm and lambda (Em) 620 and 665 nm using a microplate reader (Rubystar, BMG). The IP1 concentration was determined by dividing the signal measured at 665 nm by that measured at 620 nm (ratio). The results were expressed as a percent of the control response to 1 μM 5-HT. The standard reference agonist was 5-HT, which was tested in each experiment at several concentrations to generate a concentration-response curve from which its EC50 value is calculated as described above for dopamine functional assays.

[6] = PK experiments in rats: plasma compound (I) after oral dosing of prodrugs; assay type: in vivo, Han Wistar rats; details: Wistar rats, doses equal to 287 μg/kg of compound (I)
Description: Plasma was placed on water-ice following collection. Final storage at approximately −70° C.
Mobile phase B: Acetonitrile. […] Flow rate 0.5 mL/min.
The rats had unrestricted access to the diet.
Mobile phase B: Acetonitrile+0.2% formic acid. […] Flow rate 0.3 mL/min.
Dosing and blood sampling for compound (Ic): Han Wistar rats were supplied by Envigo, UK. […] The rats received a standard laboratory diet Teklad 2014C. The rats had unrestricted access to the diet. […] Rats were given 494 μg/kg (Ic).

rat hepatocytes [7] = details: WO 2010/097092; cited from earlier work
human hepatocytes [8] = details: WO 2010/097092; cited from earlier work
human D1 receptor = target: T2, human D1 receptor (Homo sapiens, UniProt P21728); assay: Dopamine D1 receptor agonism, HTRF cAMP assay; assay type: cell-based; details: example 5 and table 2 (D1 and D2 assays)
T2 construct: host or cells: HEK-293
Description: Dopamine D1 receptor agonism was measured using a HTRF cAMP from CisBio using the protocol developed by HD Biosciences (China). Briefly, the assay is a homogeneous time resolved-fluorescence resonance energy transfer (HTRF) assay that measures production of cAMP by cells in a competitive immunoassay between native cAMP produced by cells and cAMP-labeled with XL-665. A cryptate-labeled anti-cAMP antibody visualizes the tracer. The assay was performed in accordance with instructions from manufacturer.
Test compounds were added to wells of microplates (384 format). […] HTRF cAMP was measured by excitation of the donor with 337 nm laser (the “TRF light unit”) and subsequent (delay time 100 microseconds) measurement of cryptate and d2 emission at 615 nm and 665 nm over a time window of 200 microseconds with a 2000 microseconds time window between repeats/100 flashes). HTRF measurements were performed on an Envision microplate reader (PerkinElmer). The HTRF signal was calculated as the emission-ratio at 665 nm over 615 nm. The HTRF ratio readout for test compounds was normalized to 0% and 100% stimulation using control wells with DMSO-solvent or 30 μM dopamine. […]

human 5-HT2B receptor [9] = target: T1, human 5-HT2B receptor; assay: 5-HT2B radioligand binding assay; details: [125I](±)DOI, CHO cell membranes, read-out: 5-HT2B binding affinity (% inhibition of control, specific binding)
Description: Membrane homogenates prepared from CHO cells expressing the human 5HT2B receptor were incubated for 60 minutes at room temperature with 0.2 nM [1251](±)DOI (1-(4-iodo-2, 5-dimethoxyphenyl)propan-2-amine) in the absence or presence of the test compound in a buffer containing 50 mM Tris-HCl (pH 7.4), 5 mM MgCl2, 10 μM pargyline and 0.1% ascorbic acid. Nonspecific binding is determined in the presence of 1 μM (±)DOI. Following incubation, the samples were filtered rapidly under vacuum through glass fiber filters (GF/B, Packard) presoaked with 0.3% polyethyleneimine (PEI) and rinsed several times with ice-cold 50 mM Tris-HCl using a 96-sample cell harvester (Unifilter, Packard). The filters were dried and counted for radioactivity in a scintillation counter (Topcount, Packard) using a scintillation cocktail (Microscint 0, Packard). The results are expressed as a percent inhibition of the control radioligand specific binding. The standard reference compound was (±)DOI, which was tested in each experiment at several concentrations to obtain a competition curve from which its IC50 is calculated.

[10] = Conversion in fresh rat blood; assay type: in vitro ADME; details: fresh blood 37° C., 1 μg/mL, 0-60 minutes
Description: (§2) Conversion of (Id) in human blood (average of 3 donors) and rat blood (average of 45 donors) to (I) was shown in fresh blood at 37° C. spiked with 1 μg/mL of (Id). (I) was measured at 0, 5, 15, 30 and 60 minutes in isolated plasma. Analysis method and Instrumentation as described in Example 7 below in the section “Instrumentation used for analysis of compound (I) from dosing of compounds (Ic) and (Id).”

[11] = Conversion in fresh human blood; assay type: in vitro ADME; details: fresh blood 37° C., 1 μg/mL, 0-60 minutes
Description: as §2

[12] = In vivo conversion after oral dosing in minipigs
[13] = (Id) 10 to 300 μg/kg p.o., apomorphine 3 mg/kg s.c., pramipexole 0.3 mg/kg s.c.
[14] = 1 μg/mL, 37° C., 0.25-60 minutes

T1 sequence (P41595 whole entry): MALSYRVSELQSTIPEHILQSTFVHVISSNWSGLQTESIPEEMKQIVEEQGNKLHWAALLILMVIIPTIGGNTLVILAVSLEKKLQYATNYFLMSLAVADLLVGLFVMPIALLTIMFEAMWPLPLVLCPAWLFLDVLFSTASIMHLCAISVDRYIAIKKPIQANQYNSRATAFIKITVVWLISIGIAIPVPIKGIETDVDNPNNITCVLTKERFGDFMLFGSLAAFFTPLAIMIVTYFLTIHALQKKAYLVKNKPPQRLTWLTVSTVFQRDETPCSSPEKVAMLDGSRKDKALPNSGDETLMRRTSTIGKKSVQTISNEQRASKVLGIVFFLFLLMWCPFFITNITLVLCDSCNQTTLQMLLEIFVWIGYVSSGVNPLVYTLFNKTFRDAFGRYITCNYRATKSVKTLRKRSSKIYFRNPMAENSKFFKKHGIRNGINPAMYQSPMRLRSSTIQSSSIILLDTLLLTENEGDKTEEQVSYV
T2 sequence (P21728 whole entry): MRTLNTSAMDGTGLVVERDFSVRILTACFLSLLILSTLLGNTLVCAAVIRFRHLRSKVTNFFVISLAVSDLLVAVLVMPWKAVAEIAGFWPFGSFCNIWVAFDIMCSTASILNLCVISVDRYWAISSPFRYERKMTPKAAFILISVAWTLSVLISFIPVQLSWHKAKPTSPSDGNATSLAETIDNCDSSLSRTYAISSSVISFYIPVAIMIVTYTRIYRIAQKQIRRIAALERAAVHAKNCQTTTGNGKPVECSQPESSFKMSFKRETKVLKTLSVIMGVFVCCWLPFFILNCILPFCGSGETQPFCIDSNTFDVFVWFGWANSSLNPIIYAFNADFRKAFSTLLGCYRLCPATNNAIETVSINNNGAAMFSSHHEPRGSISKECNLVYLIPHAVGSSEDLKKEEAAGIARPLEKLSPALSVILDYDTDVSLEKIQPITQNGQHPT

For `CCCc1cc2c(s1)CN[C@@H]1CCc3cc(OC(C)=O)c(OC(C)=O)cc3[C@@H]21` [adrogolide], the Oral bioavailability [1] is given as roughly 4% and the Antiparkinson efficacy (Parkinson's disease) is given as “comparable to that of L-DOPA”.

In the case of `CN1CCc2cccc3c2[C@H]1Cc1ccc(O)c(O)c1-3` [apomorphine], the “Relationship between plasma concentration and hyperactivity” value (rat locomotor activity) is reported as “correlation between plasma concentrations of apomorphine and hyperactive behaviour” and the “Locomotor activity: start of effect post-administration” value (rat locomotor activity; [13]) is reported as “immediate”.

For `CCCN1CCC[C@@H]2Cc3c(ccc(O)c3O)C[C@H]21` [compound (I), (4aR,10aR)-1-Propyl-1,2,3,4,4a,5,10,10a-octahydro-benzo[g]quinoline-6,7-diol], the “Conjugation of compound (I) in rat hepatocytes” value (rat hepatocytes [2]) is listed as “conjugated in rat and human hepatocytes to sulfate and glucuronide derivatives”, the “Conjugation of compound (I) in human hepatocytes” value (human hepatocytes [3]) is listed as “conjugated in rat and human hepatocytes to sulfate and glucuronide derivatives” and the “Efficacy in animal models relevant for Parkinson's Disease” value (“Efficacy in animal models relevant” below) [4] is listed as “effective”.

For `CCCN1CCC[C@@H]2CC3=C(CCCC3=O)C[C@H]21` [compound (Ia)], the “5-HT2B agonist effect @ 30 μM” value (human 5-HT2B receptor [5]; 30 μM, percent of control response to 1 μM 5-HT) is given as 58%, the “Plasma profile of compound (I) after oral dosing of the prodrug (in words)” value (from here on “Plasma profile of compound (I)”) [6] is given as “early and high peak concentrations of compound (I)” and the “Efficacy in animal models relevant” value [4] is given as “effective”.

In the case of `CCCN1CCC[C@@H]2Cc3c(ccc4c3OCO4)C[C@H]21` [compound (Ib)], the “5-HT2B receptor agonism (in words)” value (human 5-HT2B receptor [5]) is given as “agonist of the 5-HT2B receptor”, the “Plasma profile of compound (I)” value [6] is given as “early and high peak concentrations of compound (I)” and the “Conversion of (Ib) to compound (I) in rat hepatocytes” value (rat hepatocytes [7]) is given as “demonstrated”. For the same compound, the “Conversion of (Ib) to compound (I) in human hepatocytes” value (human hepatocytes [8]) was “demonstrated” and the “Efficacy in animal models relevant” value [4] was “effective”.

For `CCCN1CCC[C@@H]2Cc3c(ccc(OC(=O)C(C)(C)C)c3OC(=O)C(C)(C)C)C[C@H]21` [compound (Ic)], the “5-HT2B agonist effect @ 10 μM” value (human 5-HT2B receptor [5]; 10 μM, percent of control response to 1 μM 5-HT) was −5% @ 10 μM and the “Plasma profile of compound (I)” value [6] was “extremely low”.

With `CCCN1CCC[C@@H]2Cc3c(ccc(O)c3O[C@@H]3O[C@H](C(=O)O)[C@@H](O)[C@H](O)[C@H]3O)C[C@H]21` [compound (Id), (2S,3S,4S,5R,6S)-3,4,5-trihydroxy-6-(((4aR,10aR)-7-hydroxy-1-propyl-1,2,3,4,4a,5,10,10a-octahydrobenzo[g]quinolin-6-yl)oxy)tetrahydro-2H-pyran-2-carboxylic acid] the “In vitro dopaminergic activity (in words)” value (human D1 receptor) was “no in vitro dopaminergic activity”, the “5-HT2B receptor agonism (in words)” value (human 5-HT2B receptor [5]) was “not a 5-HT2B agonists” and the inhibition at 10 µM (human 5-HT2B receptor [9]) was -25%. For the same compound, the “Plasma profile of compound (I)” value [6] was “slower absorption rate avoiding rapid peak concentrations”, the “Relationship between plasma concentration and hyperactivity” value (rat locomotor activity) was “correlate with the plasma concentrations of compound (I)” and the “Locomotor activity: start of effect post-administration” value (rat locomotor activity; [13]) was roughly 2 h. For the same compound, the “Locomotor activity: end of effect post administration” value (rat locomotor activity; (Id) 10 to 300 μg/kg p.o., apomorphine 3 mg/kg s.c., recording until 415-minute time point) was “lasting until the end of recording”, the “Total distance travelled (FIG. 3)” value (rat locomotor activity; versus vehicle, (Id) p.o., apomorphine 3 mg/kg s.c., pramipexole 0.3 mg/kg s.c.) was “significantly increased activity” and the “Conversion of (Id) to compound (I) in rat hepatocytes” value (rat hepatocytes [2]; [14]) was “time dependent conversion”. The “Conversion of (Id) to compound (I) in human hepatocytes” value (human hepatocytes [3]; [14]) was “time dependent conversion”, the “Conversion of (Id) to compound (I) in rat blood” value [10] was “time dependent conversion” and the “Conversion of (Id) to compound (I) in human blood” value [11] was “time dependent conversion”. The “In vivo conversion of (Id) to compound (I)” value [12] was “observed”.
